Data taken from US4325974A, “β, γ-Dihydropolyprenyl alcohol and hypotensive pharmaceutical composition containing same” (Eisai Co., Ltd., priority 1978, dated 1982).

Columns and labels:
[1] = system: spontaneously hypertensive rats (SHR) of Okamoto and Aoki; assay: Hypotensive effect on spontaneously hypertensive rats (blood pressure, tail-cuff method; heart rate, tachometer); type: in vivo, rat (SHR of Okamoto and Aoki); conditions: 10 mg/kg oral
Experimental: I. The hypotensive effect of the formula (I) compound, according to the invention, on spontaneously hypertensive rats (hereinafter referred to as SHR) of Okamoto and Aoki:
The hypotensive effects of the test compounds on SHR of Okamoto and Aoki of about 35 weeks age were determined. The systolic blood pressure of the SHR was around 230 mmHg.
The test compounds were given to the SHR orally in the form of a suspension in aqueous acacia solution. The SHR were divided into a test compound group to which a test compound was administered and a control group to which only an aqueous acacia solution (free of test compound) was administered. Each group comprised three SHR.
The blood pressure of the SHR was measured with a Shimazu continuous tonometer SCS-301 (a product of Shimazu Seisakusho Co., Ltd.). Tail artery pressure was indirectly measured by a tail-cuff method.
The blood pressure was measured immediately before the administration and at 2, 4, 6 and 24 hours after the administration to determine the change in blood pressure with the passing of time.
The heart rate was determined by recording the pulse rate at the tail of the SHR with a tachometer of said tonometer […]. Test Compound and Dose
10 mg/kg (body weight of SHR)

[2] = system: hepatic disease (hepatitis), induced by intraabdominal administration of D-galactosamine; assay: Effect on hepatic disease (hepatitis) induced by intraabdominal administration of D-galactosamine; type: in vivo; conditions: SD rats
Experimental: II. The effects of the formula (I) compound, according to the invention, on hepatic disease (hepatitis), induced by intraabdominal administration of D-galactosamine.
SD rats weighing about 250 g were used as test animals. D-Galactosamine hydrochloride (250 mg/kg each administration) and the test compound (50 mg/kg each administration) were administered intraabdominally to the rats on the schedule of experiments set forth below. After completion of the administration, blood was drawn from the test animals. The GPT value and alkali phosphatase value of the blood, which are indexes of the hepatic disease, were determined.
The test compound was used in the form of a suspension in 5% aqueous acacia solution. D-Galactosamine hydrochloride was used in the form of an aqueous solution thereof in distilled water, which solution was adjusted to pH 7 with potassium hydroxide. The rats were divided into three groups, i.e., a test compound group (comprising 9 rats) to which the test compound was administered, a control group (comprising 14 rats) to which 5% aqueous acacia solution free of the test compound was administered and a normal group (comprising 9 rats) to which neither the test compound nor D-galactosamine hydrochloride was administered. [drawing 9]

Compound: CC(C)=CCCC(C)=CCCC(C)=CCCC(C)=CCCC(C)=CCCC(C)=CCCC(C)=CCCC(C)=CCCC(C)=CCCC(C)CCO (centres unmarked) [test compound, 3,7, 11, 15, 19, 23, 27, 31, 35, 39-Decamethyl-6, 10, 14, 18, 22, 26, 30, 34, 38-tetracontanonaene-1-ol]
- blood pressure two hours after the administration ([1]; 2 h, before administration 227±7 mmHg): 207±9 mmHg
- blood pressure six hours after the administration ([1]; 6 h, before administration 227±7 mmHg, control 232±7 mmHg at 6 h): 202±12 mmHg
- blood pressure 24 hours after the administration ([1]; 24 h, before administration 227±7 mmHg): 212±9 mmHg
- effect on the heart rate ([1]; result in words): No effect on the heart rate was observed
- hypotensive effect ([1]; result in words): clear, long-lasting hypotensive effect
- effect on hepatic disease induced by D-galactosamine hydrochloride ([2]; 50 mg/kg each intraabdominal, result in words): ameliorated or prevented
- Alkali phosphatase value ([2]; test compound 50 mg/kg each and D-galactosamine hydrochloride 250 mg/kg each, intraabdominal, control 70.9 ± 3.9, normal 32.3 ± 2.5): 63.7 ± 4.3 KA-U
- GPT Value ([2]; test compound 50 mg/kg each and D-galactosamine hydrochloride 250 mg/kg each, intraabdominal, control 1041.4 ± 200.8, normal 46.5 ± 4.9): 523.3 ± 111.7 Carmen unit
